What all share (experiment): cAMP functional assay (HTRF) in HEK293 cells in presence of 0.1% casein
Holding throughout (format): cell-based
A general note: Time-resolved FRET reads energy transfer from a long-lived donor to a nearby acceptor.

For assay [1], the target named is T1, human GLP-1 receptor (GLP-1R) (Homo sapiens, UniProt P43220).
T1 construct: expressed in transfected cells; host or cells: HEK293
The settings on record: HEK293 cells expressing human GLP-1R, geometric mean, read-out: hGLP1R cAMP Rel EC50 nM (SEM, n).

For assay [2], the target named is T2, human glucagon receptor (GcgR) (Homo sapiens, UniProt P47871).
T2 construct: expressed in transfected cells; host or cells: HEK293
The settings on record: HEK293 cells expressing human GcgR, geometric mean, read-out: hGcgR cAMP Rel EC50 nM (SEM, n).

Assay [3] addresses T3, human glucose-dependent insulinotropic peptide receptor (GIPR) (Homo sapiens, UniProt P48546).
T3 construct: expressed in transfected cells; host or cells: HEK293
T3 sequence (P48546 22-466): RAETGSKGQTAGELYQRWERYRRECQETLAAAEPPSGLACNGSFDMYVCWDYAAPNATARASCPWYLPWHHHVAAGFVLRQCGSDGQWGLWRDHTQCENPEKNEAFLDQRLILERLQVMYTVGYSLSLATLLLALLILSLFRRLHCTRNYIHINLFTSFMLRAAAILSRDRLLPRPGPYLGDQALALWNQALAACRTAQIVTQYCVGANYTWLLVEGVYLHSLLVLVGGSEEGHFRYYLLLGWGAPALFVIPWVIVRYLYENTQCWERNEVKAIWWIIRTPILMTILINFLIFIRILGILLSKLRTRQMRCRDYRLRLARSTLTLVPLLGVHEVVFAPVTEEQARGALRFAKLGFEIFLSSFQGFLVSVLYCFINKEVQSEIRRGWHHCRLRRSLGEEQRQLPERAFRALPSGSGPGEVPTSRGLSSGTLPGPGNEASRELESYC
Conditions: HEK293 cells expressing human GIPR, geometric mean, read-out: hGIPR cAMP Rel EC50 nM (SEM, n).

*1 amine or outer side, *2 acyl side, *3 side chain or, on linkers, in order; H or OH if unused. Where a SMILES comes first, the peptide text is derived from it. Side-chain parts run from the residue outwards. [ ]: non-standard residue; d: D form. The star is where a group is joined. C20 diacid = O=C(O)CCCCCCCCCCCCCCCCCCC(=O)*; C18 diacid = O=C(O)CCCCCCCCCCCCCCCCC(=O)*; αMePhe(2-F) = C[C@](N)(Cc1ccccc1F)C(=O)O; γGlu = O=C(O)[C@H](CCC(=O)[*:2])N[*:1]; αMeL = CC(C)C[C@](C)(N)C(=O)O; AEEA = NCCOCCOCC(=O)O; Aib = CC(C)(N)C(=O)O

T2 sequence (P47871 26-477): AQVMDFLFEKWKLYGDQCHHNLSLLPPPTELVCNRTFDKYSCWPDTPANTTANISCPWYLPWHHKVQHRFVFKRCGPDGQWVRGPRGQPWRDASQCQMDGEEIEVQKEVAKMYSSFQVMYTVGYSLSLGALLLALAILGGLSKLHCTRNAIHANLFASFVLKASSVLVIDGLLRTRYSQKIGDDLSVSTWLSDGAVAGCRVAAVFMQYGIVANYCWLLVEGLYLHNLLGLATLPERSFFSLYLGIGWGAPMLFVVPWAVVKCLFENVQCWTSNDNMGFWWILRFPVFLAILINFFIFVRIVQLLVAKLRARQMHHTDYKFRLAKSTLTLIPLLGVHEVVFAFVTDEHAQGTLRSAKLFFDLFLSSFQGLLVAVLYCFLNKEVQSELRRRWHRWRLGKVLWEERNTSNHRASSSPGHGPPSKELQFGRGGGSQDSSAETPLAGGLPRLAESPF
T1 sequence (P43220 24-463): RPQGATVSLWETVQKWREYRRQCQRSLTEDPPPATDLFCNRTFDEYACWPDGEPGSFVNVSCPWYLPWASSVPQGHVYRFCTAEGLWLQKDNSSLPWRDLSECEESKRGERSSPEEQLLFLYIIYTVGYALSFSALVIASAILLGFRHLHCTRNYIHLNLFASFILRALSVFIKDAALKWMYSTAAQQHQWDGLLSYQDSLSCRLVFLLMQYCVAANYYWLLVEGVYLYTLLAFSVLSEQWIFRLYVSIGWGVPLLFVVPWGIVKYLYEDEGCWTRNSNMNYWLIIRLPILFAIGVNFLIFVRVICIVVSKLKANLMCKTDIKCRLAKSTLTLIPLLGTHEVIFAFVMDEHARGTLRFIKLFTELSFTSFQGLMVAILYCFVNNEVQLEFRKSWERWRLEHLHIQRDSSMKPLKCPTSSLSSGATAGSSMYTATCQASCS

As for `CC[C@H](C)[C@H](NC(=O)[C@H](CO)NC(=O)[C@H](Cc1ccc(O)cc1)NC(=O)[C@H](CC(=O)O)NC(=O)[C@H](CO)NC(=O)[C@@H](NC(=O)[C@H](CC(C)C)NC(=O)[C@@H](NC(=O)CNC(=O)[C@H](CCC(=O)O)NC(=O)[C@@H](C)NC(=O)[C@@H](N)Cc1ccc(O)cc1)[C@@H](C)O)[C@@H](C)CC)C(=O)N[C@@H](CC(C)C)C(=O)N[C@@H](CC(C)C)C(=O)N[C@@H](CC(=O)O)C(=O)N[C@@H](CCCCN)C(=O)N[C@@H](CCCCNC(=O)COCCOCCNC(=O)COCCOCCNC(=O)CC[C@H](NC(=O)CCCCCCCCCCCCCCCCC(=O)O)C(=O)O)C(=O)N[C@@H](C)C(=O)N[C@@H](CCC(N)=O)C(=O)NC(C)(C)C(=O)N[C@@H](CC(=O)O)C(=O)N[C@@H](Cc1ccccc1)C(=O)N[C@H](C(=O)N[C@@H](CC(N)=O)C(=O)N[C@@H](Cc1c[nH]c2ccccc12)C(=O)N[C@@H](CC(C)C)C(=O)N[C@@H](CC(C)C)C(=O)N[C@@H](C)C(=O)N[C@@H](CCC(N)=O)C(=O)NCC(=O)N1CCC[C@H]1C(=O)N[C@@H](CO)C(=O)N[C@@H](CO)C(=O)NCC(=O)N[C@@H](C)C(=O)N1CCC[C@H]1C(=O)N1CCC[C@H]1C(=O)N1CCC[C@H]1C(=O)N[C@@H](CO)C(N)=O)C(C)C` [Example 32] (H-Y[dA]EGTLISDYSILLDKK([AEEA-AEEA-γGlu-C18 diacid])AQ[Aib]DFVNWLLAQGPSSGAPPPS-NH2), the 50% effective concentration (EC50) (as a rule, the midpoint of the concentration-response curve) is greater than 5000 nM in assay [1], greater than 5000 nM in assay [2] and 0.00469 nM in assay [3].
As to `CC[C@H](C)[C@H](NC(=O)[C@H](CO)NC(=O)[C@H](Cc1ccc(O)cc1)NC(=O)[C@H](CC(=O)O)NC(=O)[C@H](CO)NC(=O)[C@@H](NC(=O)[C@](C)(Cc1ccccc1F)NC(=O)[C@@H](NC(=O)CNC(=O)[C@H](CCC(=O)O)NC(=O)[C@H](C)NC(=O)[C@@H](Cc1ccc(O)cc1)NC(C)=O)[C@@H](C)O)[C@@H](C)CC)C(=O)N[C@@H](C)C(=O)N[C@@H](CC(C)C)C(=O)N[C@@H](CC(=O)O)C(=O)N[C@@H](CCCCN)C(=O)N[C@@H](CCCCNC(=O)COCCOCCNC(=O)COCCOCCNC(=O)CC[C@H](NC(=O)CCCCCCCCCCCCCCCCCCC(=O)O)C(=O)O)C(=O)N[C@@H](Cc1c[nH]cn1)C(=O)N[C@@H](CCC(N)=O)C(=O)NC(C)(C)C(=O)N[C@@H](CCC(=O)O)C(=O)N[C@@H](Cc1ccccc1)C(=O)N[C@H](C(=O)N[C@@H](CC(N)=O)C(=O)N[C@@H](Cc1ccc(O)cc1)C(=O)N[C@@H](CC(C)C)C(=O)N[C@@H](CC(C)C)C(=O)N[C@@H](CCC(=O)O)C(=O)NCC(=O)NCC(=O)N1CCC[C@H]1C(=O)N[C@@H](CO)C(=O)N[C@@H](CO)C(=O)NCC(=O)N[C@@H](C)C(=O)N1CCC[C@H]1C(=O)N1CCC[C@H]1C(=O)N1CCC[C@H]1C(=O)N[C@@H](CO)C(N)=O)C(C)C` [Example 33] (Ac-[dY]AEGT[αMePhe(2-F)]ISDYSIALDKK([AEEA-AEEA-γGlu-C20 diacid])HQ[Aib]EFVNYLLEGGPSSGAPPPS-NH2), the EC50 in assay [1] was greater than 5000 nM; in assay [2] it was greater than 5000 nM; in assay [3], 0.0551 nM.
With `CC[C@H](C)[C@H](NC(=O)[C@H](CO)NC(=O)[C@H](Cc1ccc(O)cc1)NC(=O)[C@H](CC(=O)O)NC(=O)[C@H](CO)NC(=O)[C@@H](NC(=O)[C@](C)(Cc1ccccc1F)NC(=O)[C@@H](NC(=O)CNC(=O)[C@H](CCC(=O)O)NC(=O)C(C)(C)NC(=O)[C@@H](N)Cc1ccc(O)cc1)[C@@H](C)O)[C@@H](C)CC)C(=O)N[C@@H](C)C(=O)N[C@@H](CC(C)C)C(=O)N[C@@H](CC(=O)O)C(=O)N[C@@H](CCCCN)C(=O)N[C@@H](CCCCNC(=O)COCCOCCNC(=O)COCCOCCNC(=O)CC[C@H](NC(=O)CCCCCCCCCCCCCCCCCCC(=O)O)C(=O)O)C(=O)N[C@@H](Cc1c[nH]cn1)C(=O)N[C@@H](CCC(N)=O)C(=O)NC(C)(C)C(=O)N[C@@H](CCC(=O)O)C(=O)N[C@@H](Cc1ccccc1)C(=O)N[C@H](C(=O)N[C@@H](CC(N)=O)C(=O)N[C@@H](Cc1ccc(O)cc1)C(=O)N[C@@H](CC(C)C)C(=O)N[C@@H](CC(C)C)C(=O)N[C@@H](C)C(=O)N[C@H](C(=O)NCC(=O)N1CCC[C@H]1C(=O)N[C@@H](CO)C(=O)N[C@@H](CO)C(=O)NCC(=O)N[C@@H](C)C(=O)N1CCC[C@H]1C(=O)N1CCC[C@H]1C(=O)N1CCC[C@H]1C(=O)N[C@@H](CO)C(N)=O)[C@@H](C)O)C(C)C` [Example 34] (H-Y[Aib]EGT[αMePhe(2-F)]ISDYSIALDKK([AEEA-AEEA-γGlu-C20 diacid])HQ[Aib]EFVNYLLATGPSSGAPPPS-NH2), the figures for the concentration giving a half-maximal response (EC50) in assay [1], in assay [2] and in assay [3] were 462 nM, 913 nM and 0.0177 nM, respectively.
In the case of `CC[C@H](C)[C@H](NC(=O)[C@H](CO)NC(=O)[C@H](Cc1ccc(O)cc1)NC(=O)[C@H](CC(=O)O)NC(=O)[C@H](CO)NC(=O)[C@@H](NC(=O)[C@](C)(CC(C)C)NC(=O)[C@@H](NC(=O)CNC(=O)[C@H](CCC(=O)O)NC(=O)C(C)(C)NC(=O)[C@@H](N)Cc1ccc(O)cc1)[C@@H](C)O)[C@@H](C)CC)C(=O)N[C@@H](C)C(=O)N[C@@H](CC(C)C)C(=O)N[C@@H](CC(=O)O)C(=O)N[C@@H](CCCCN)C(=O)N[C@@H](CCCCNC(=O)COCCOCCNC(=O)COCCOCCNC(=O)CC[C@H](NC(=O)CCCCCCCCCCCCCCCCCCC(=O)O)C(=O)O)C(=O)N[C@@H](Cc1c[nH]cn1)C(=O)N[C@@H](CCC(N)=O)C(=O)NC(C)(C)C(=O)N[C@@H](CCC(=O)O)C(=O)N[C@@H](Cc1ccccc1)C(=O)N[C@H](C(=O)N[C@@H](CC(N)=O)C(=O)N[C@@H](Cc1ccc(O)cc1)C(=O)N[C@@H](CC(C)C)C(=O)N[C@@H](CC(C)C)C(=O)N[C@@H](C)C(=O)N[C@H](C(=O)NCC(=O)N1CCC[C@H]1C(=O)N[C@@H](CO)C(=O)N[C@@H](CO)C(=O)NCC(=O)N[C@@H](C)C(=O)N1CCC[C@H]1C(=O)N1CCC[C@H]1C(=O)N1CCC[C@H]1C(=O)N[C@@H](CO)C(N)=O)[C@@H](C)O)C(C)C` [Example 35] (H-Y[Aib]EGT[αMeL]ISDYSIALDKK([AEEA-AEEA-γGlu-C20 diacid])HQ[Aib]EFVNYLLATGPSSGAPPPS-NH2), the EC50 in assay [1] is greater than 5000 nM; in assay [2] it was greater than 5000 nM; in assay [3], 0.0125 nM.
`CC[C@H](C)[C@H](NC(=O)[C@H](CO)NC(=O)[C@H](Cc1ccc(O)cc1)NC(=O)[C@H](CC(=O)O)NC(=O)[C@H](CO)NC(=O)[C@@H](NC(=O)[C@](C)(Cc1ccccc1F)NC(=O)[C@@H](NC(=O)CNC(=O)[C@H](CCC(=O)O)NC(=O)C(C)(C)NC(=O)[C@@H](N)Cc1ccc(O)cc1)[C@@H](C)O)[C@@H](C)CC)C(=O)N[C@@H](C)C(=O)N[C@@H](CC(C)C)C(=O)N[C@@H](CC(=O)O)C(=O)N[C@@H](CCCCN)C(=O)N[C@@H](CCCCNC(=O)COCCOCCNC(=O)COCCOCCNC(=O)CC[C@H](NC(=O)CCCCCCCCCCCCCCCCCCC(=O)O)C(=O)O)C(=O)N[C@@H](Cc1c[nH]cn1)C(=O)N[C@@H](CCC(N)=O)C(=O)NC(C)(C)C(=O)N[C@@H](CC(=O)O)C(=O)N[C@@H](Cc1ccccc1)C(=O)N[C@H](C(=O)N[C@@H](CCC(=O)O)C(=O)N[C@@H](Cc1ccc(O)cc1)C(=O)N[C@@H](CC(C)C)C(=O)N[C@@H](CC(C)C)C(=O)N[C@@H](CCC(=O)O)C(=O)N[C@H](C(=O)NCC(=O)N1CCC[C@H]1C(=O)N[C@@H](CO)C(=O)N[C@@H](CO)C(=O)NCC(=O)N[C@@H](C)C(=O)N1CCC[C@H]1C(=O)N1CCC[C@H]1C(=O)N1CCC[C@H]1C(=O)N[C@@H](CO)C(N)=O)[C@@H](C)O)C(C)C` [Example 36] (H-Y[Aib]EGT[αMePhe(2-F)]ISDYSIALDKK([AEEA-AEEA-γGlu-C20 diacid])HQ[Aib]DFVEYLLETGPSSGAPPPS-NH2): the EC50 is 1080 nM in assay [1], greater than 5000 nM in assay [2] and 0.0543 nM in assay [3].

The values above are taken from patent US12723063B2, “GIPR-agonist compounds” (Eli Lilly and Company, priority 2019, dated 2026).
